Values joined by “and” are separate entries in the source; they are usually repeats but may differ in a detail not shown here. Identical values can stand only once. Like-named read-outs stand apart in the source and are kept apart here.
Key:
W1L2:R865 cell line = assay: Growth inhibition of W1L2:R865 cells (acquired resistance to CB 30865); type: cell-based, human
Procedure: A cell line was raised with acquired resistance to CB 30865, denoted W1L2:R865, by stepwise selection over ˜9 months.
The generated W1L2:R865 cell line was routinely cultured in 0.03 μm CB 30865 under the same conditions as W1L2 cells, with cells being grown in the absence of CB 30865 for ˜2 weeks before an experiment.
The activity of compounds against W1L2:R865 cells was determined within parallel experiments by 72 h growth inhibition assay (Coulter counts). CB 30865 was included in every experiment as an internal control.

W1L2:C1 cells = assay: Growth inhibition of W1L2:C1 cells (elevated TS); type: cell-based, human; conditions: read-out: Inhibition of Cell Growth IC50, W1L2:C1 (B)
Procedure: W1L2 human lymphoblastoid, W1L2:C1 (elevated TS; O'Connor et al, Cancer Res, 52, 1137-1143 (1992)) and L1210 mouse leukaemia cells were cultured in suspension and A2780, PXN94, 41M, HX62, SKOV3 (human ovarian carcinoma), MCF-7 (human breast carcinoma), HT29 and SW480 (human colon carcinoma) cell lines were grown as monolayers as described in Jackman et al, Cancer Res, 50, 5212-5218 (1990) and Jackman et al, Br. J. Cancer, 71, 914-924 (1995).
Growth inhibition studies with suspension cells were performed as described in Jackman et al, Cancer Res, 50, 5212-5218 (1990). Activity against the adherent cell lines was assessed by MTT assay (Twentyman et al, Br. J. Cancer, 56, 279-285 (1987)) where cells were seeded in 96-well plates at 1000-3000 cells per well, incubated overnight and then exposed to the appropriate drug concentrations for 96-120 h.

[1] = tested on: W1L2 human lymphoblastoid cells; assay: Growth inhibition of W1L2 cells; type: cell-based; conditions: W1L2 suspension cells, read-out: Inhibition of Cell Growth IC50, W1L2 (B)
W1L2 cells = assay: Growth inhibition of W1L2 in presence of folate metabolites (dThd/HX); type: cell-based, human; conditions: in the presence of 10 μM thymidine (dThd) and 50 μM hypoxantine (HX), read-out: Inhibition of Cell Growth IC50, W1L2 + dThd/HX (C)
Procedure: Growth inhibition assays as described above were performed in W1L2 cells where compounds were incubated in the presence of 10 μM thymidine (dThd) and 50 μM hypoxantine (HX) (purchased from Sigma Chemical Co.).

[2] = molecular target: mouse thymidylate synthase (TS) (Mus musculus, UniProt P07607); assay: Inhibition of L1210 thymidylate synthase (TS)
Chain of mouse thymidylate synthase (TS) (P07607 whole entry): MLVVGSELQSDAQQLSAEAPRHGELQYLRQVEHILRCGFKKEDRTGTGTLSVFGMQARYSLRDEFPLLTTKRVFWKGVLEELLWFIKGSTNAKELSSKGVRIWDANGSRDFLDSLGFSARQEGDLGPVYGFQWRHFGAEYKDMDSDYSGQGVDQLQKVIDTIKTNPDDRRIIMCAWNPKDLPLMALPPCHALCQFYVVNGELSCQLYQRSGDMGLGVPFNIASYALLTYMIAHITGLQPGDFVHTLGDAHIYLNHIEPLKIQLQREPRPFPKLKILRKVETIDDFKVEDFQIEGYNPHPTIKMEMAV

[3] = Homo sapiens, 72 h growth inhibition assay (Coulter counts), read-out: Inhibition of Cell Growth IC50, W1L2:R865 (D)
[4] = Homo sapiens, Lymphoblastoid cell
[5] = Homo sapiens, 72 h, read-out: Inhibition of Cell Growth IC50, W1L2:R865 (D), 72 h growth inhibition assay (Coulter counts)
[6] = 72 h growth inhibition assay (Coulter counts), read-out: Inhibition of Cell Growth IC50, W1L2:R865 (D)
[7] = read-out: Inhibition of Cell Growth IC50, W1L2:R865 (D), 72 h growth inhibition assay (Coulter counts)

Row | Compound | IC50 (W1L2:C1 cells; Homo sapiens) | IC50 [1, 4] | IC50 (W1L2:R865 cell line; [5]) | melting point | also measured
1 | C#CCN(c1ccc(C(=O)NCc2cccnc2)cc1)C1CCc2cc3cc(C)n(C)c(=O)c3cc21 (centres unmarked) [CB300847, reference compound] | 2.7 nM | 6.5 ± 1.7 nM | – | – | IC50 (W1L2:R865 cell line; [3]): 2500 nM
2 | C#CCN(Cc1cc2c(=O)n(C)c(CN3CCN(C)CC3)nc2cc1Cl)c1ccc(C(=O)NCc2cccnc2)cc1 [CB300921, 4-[N-[7-Chloro-3-methyl-2-(4-methyl-piperazin-1-yl)methyl-4-oxo-3,4-dihydroquinazolin-6-ylmethyl]-N-(prop-2-ynyl)amino]-N-(3-pyridylmethyl)benzamide] | – | 0.65 ± 0.15 nM | > 10000 nM | – | IC50 (W1L2:C1 cells): 0.62 nM and 0.54 nM
3 | C#CCN(Cc1cc2c(=O)n(C)c(CN(CC)CC)nc2cc1Cl)c1ccc(C(=O)NCc2cccnc2)cc1 [CB300922, 4-[N-[2-Diethylaminomethyl-7-chloro-3-methyl-4-oxo-3,4-dihydroquinazolin-6-ylmethyl]-N-(prop-2-ynyl)amino]-N-(3-pyridylmethyl)benzamide] | 0.42 nM | 0.71 ± 0.0076 nM | > 50000 nM | 180 to 182 °C | IC50 (W1L2 cells; Homo sapiens): 0.73 ± 0.05 nM; Inhibition of L1210 TS (A) IRP* (inverse relative potency) [2]: >2500
4 | C#CCN(Cc1cc2c(=O)n(C)c(CN3CCCCC3)nc2cc1Cl)c1ccc(C(=O)NCc2cccnc2)cc1 [CB300923, 4-[N-[7-Chloro-3-methyl-4-oxo-2-piperidinomethyl-3,4-dihydroquinazolin-6-ylmethyl]-N-(prop-2-ynyl)amino]-N-(3-pyridylmethyl)benzamide] | – | 0.8 nM | 14000 nM | 148 to 150 °C | IC50 (W1L2 cells; Homo sapiens): 0.78 nM; Inhibition of L1210 TS (A) IRP* (inverse relative potency) [2]: >4211
5 | C#CCN(Cc1cc2c(=O)n(C)c(CN3CCOCC3)nc2cc1Cl)c1ccc(C(=O)NCc2cccnc2)cc1 [CB300925, 4-[N-[7-Chloro-3-methyl-2-morpholinomethyl-4-oxo-3,4-dihydroquinazolin-6-ylmethyl]-N-(prop-2-ynyl)amino]-N-(3-pyridylmethyl)benzamide] | – | 2 ± 0.36 nM | 19000 nM | > 145 °C | –
6 | C#CCN(Cc1cc2c(=O)n(C)c(CN3CCCC3)nc2cc1Cl)c1ccc(C(=O)NCc2cccnc2)cc1 [CB300926, 4-[N-[7-Chloro-3-methyl-2-pyrrolidinomethyl-4-oxo-3,4-dihydroquinazolin-6-ylmethyl]-N-(prop-2-ynyl)amino]-N-(3-pyridylmethyl)benzamide] | – | 0.7 nM | 24000 nM | – | IC50 (W1L2 cells; Homo sapiens): 0.76 nM; IC50 [1]: 0.74 nM
7 | C#CCN(Cc1cc2c(=O)n(C)c(CN3CCN(CC)CC3)nc2cc1Cl)c1ccc(C(=O)NCc2cccnc2)cc1 [CB300927, 4-[N-[7-Chloro-3-methyl-2-(4-ethyl-piperazin-1-yl)methyl-4-oxo-3,4-dihydroquinazolin-6-ylmethyl]-N-(prop-2-ynyl)amino]-N-(3-yridylmethyl)benzamide] | – | – | – | – | IC50 (W1L2 cells): 0.78 nM and 0.76 nM; IC50 (W1L2:R865 cell line; [6]): 22000 nM and 20000 nM; IC50 [1]: 0.78 nM and 0.8 nM
8 | C#CCN(Cc1cc2c(=O)n(C)c(CN3CCC[C@H]3C(=O)OC)nc2cc1Cl)c1ccc(C(=O)NCc2cccnc2)cc1 [CB300928, 4-[N-[7-Chloro-3-methyl-2-(methyl-L-prolin-1-yl)methyl-4-oxo-3,4-dihydroquinazolin-6-ylmethyl]-N-(prop-2-ynyl)amino]-N-(3-pyridylmethyl)benzamide] | – | – | – | – | IC50 (W1L2 cells): 14 nM and 7.6 nM; IC50 (W1L2:R865 cell line; [6]): 24000 nM and 19000 nM
9 | C#CCN(Cc1cc2c(=O)n(C)c(CN3CCN(C)CC3)nc2cc1Cl)c1ccc(C(=O)NCCCn2ccnc2)cc1 [CB300929, 4-[N-[7-Chloro-3-methyl-2-(4-methyl-piperazin-1-yl)methyl-4-oxo-3,4-dihydroquinazolin-6-ylmethyl]-N-(prop-2-ynyl)amino]-N-[3-(1H-imidazol-1-yl)propyl)benzamide] | 2.3 nM | 2.1 nM | 18000 nM | > 115 °C | IC50 (W1L2:R865 cell line; [7]): 14000 nM; IC50 (W1L2:C1 cells): 2.2 nM; IC50 [1]: 2.2 nM
10 | C#CCN(Cc1cc2c(=O)n(C)c(CN3CCN(CCO)CC3)nc2cc1Cl)c1ccc(C(=O)NCc2cccnc2)cc1 [CB300930, 4-[N-[7-Chloro-3-methyl-2-(4-(2-hydroxyethyl)-piperazin-1-yl)methyl-4-oxo-3,4-dihydroquinazolin-6-ylmethyl]-N-(prop-2-ynyl)amino]-N-(3-pyridylmethyl)benzamide] | – | – | 22000 nM | 115 to 117 °C | IC50 (W1L2:R865 cell line; [7]): 19000 nM
11 | C#CCN(Cc1cc2c(=O)n(CC(=O)OC)c(CN3CCCCC3)nc2cc1Cl)c1ccc(C(=O)NCc2cccnc2)cc1 [CB300931, 4-[N-[7-Chloro-3-methoxycarbonylmethyl-4-oxo-2-piperidin-1-ylmethyl-3,4-dihydroquinazolin-6-ylmethyl]-N-(prop-2-ynyl)amino]-N-(3-pyridylmethyl)benzamide] | 9.6 nM | 11 nM | 23000 nM | 214 to 216 °C | –
12 | C#CCN(Cc1cc2c(=O)n(CCN(C)C)c(CN3CCCCC3)nc2cc1Cl)c1ccc(C(=O)NCc2cccnc2)cc1 [CB300933, 4-[N-[7-Chloro-3-(2-dimethylaminoethyl)-4-oxo-2-piperidin-1-ylmethyl-3,4-dihydroquinazolin-6-ylmethyl]-N-(prop-2-ynyl)amino]-N-(3-pyridylmethyl)benzamide] | 2.8 nM | 2.9 nM | 7200 nM | 90 to 93 °C | –
13 | C#CCN(Cc1cc2c(=O)n(C)c(CN3CCN(c4ccccc4)CC3)nc2cc1Cl)c1ccc(C(=O)NCc2cccnc2)cc1 [CB300934, 4-[N-[7-Chloro-3-methyl-4-oxo-2-(4-phenylpiperazin-1-yl)methyl-3,4-dihydroquinazolin-6-ylmethyl]-N-(prop-2-ynyl)amino]-N-(3-pyridylmethyl)benzamide] | 5.4 nM | 7.2 nM | 940 nM | 214 to 216 °C | –
14 | C#CCN(Cc1cc2c(=O)n(CC(=O)N3CCCCC3)c(CN3CCCCC3)nc2cc1Cl)c1ccc(C(=O)NCc2cccnc2)cc1 [CB300938, 4-[N-[7-Chloro-4-oxo-2-(piperidin-1-yl)methyl-3-piperidinocarbonylmethyl-3,4-dihydroquinazolin-6-ylmethyl]-N-(prop-2-ynyl)amino]-N-(3-pyridylmethyl)benzamide] | 7.4 nM | 8.4 nM | > 50000 nM | 128 to 130 °C | –
15 | C#CCN(Cc1cc2c(=O)n(C)c(CN3CCC(O)CC3)nc2cc1Cl)c1ccc(C(=O)NCc2cccnc2)cc1 [CB300939, 4-[N-[7-Chloro3-methyl-2-(4-hydroxypiperidin-1-yl)methyl-4-oxo-3,4-dihydroquinazolin-6ylmethyl]-N-(prop-2-ynyl)amino]-N-(3-pyridylmethyl)benzamide] | 0.7 nM | 0.72 nM | 18000 nM | – | –
16 | C#CCN(Cc1cc2c(=O)n(CC(=O)N(CC)CC)c(CN3CCCCC3)nc2cc1Cl)c1ccc(C(=O)NCc2cccnc2)cc1 [CB300941, 4-[N-[7-Chloro-3-diethylcarbamoylmethyl-4-oxo-2-(piperidin-1-yl)methyl-3,4-dihydroquinazolin-6-ylmethyl]-N-(prop-2-ynyl)amino]-N-(3-pyridylmethyl)benzamide] | 8.4 nM | 9.4 nM | 19000 nM | > 105 °C | –
17 | C#CCN(Cc1cc2c(=O)n(C)c(CN3CCCCC3)nc2cc1Cl)c1ccc(C(=O)NCCCn2cncn2)cc1 [CB300942] | – | – | – | – | IC50 (W1L2:R865 cell line; [6]): 20000 nM; IC50 (W1L2:C1 cells): > 500 nM; IC50 [1]: > 500 nM
18 | CN(c1ccc(C(=O)NCc2cccnc2)cc1)C1CCc2cc3nc(CN4CCCCC4)n(C)c(=O)c3cc21 (centres unmarked) [CB300943] | 26 nM | 28 nM | – | – | IC50 (W1L2:R865 cell line; [3]): > 500 nM

Reference: patent US6699861B1, “Anti-quinazoline compounds” (Cancer Research Technology Limited, priority 1999, dated 2004)
